# Counter-ions that a name gives are not always drawn. Like-named read-outs stand apart in the source and are kept apart here.
# Key:
# [1] = biological target: human CB1 receptor (hCB1) (Homo sapiens, UniProt P21554); experiment: cell-based; format: cell-based
# Experimental: (§1) The ability of compounds to act as agonists or inverse agonists at human CB2 and CB1 receptors (hCB2, hCB1, respectively) and at the rat CB2 receptor (rCB2) was determined by measuring changes in intracellular cAMP levels. Chinese Hamster Ovary (CHO-K1) cell lines stably expressing hCB2 (Genebank: X74328) or hCB1 (Genebank: X54937) were purchased from Euroscreen (Gosselies, Belgium). The rat CB2 receptor was expressed from genomic DNA (provided by M. Abood, California Pacific Medical Center) in CHO-K1 cells from expression plasmid vector, pcDNA3.1.
# (§2) Cell lines were grown in suspension in EX-CELL 302 CHO Serum-free medium (Sigma, cat #14324C) supplemented with 1% Fetal Bovine Serum, glutamine and non-essential amino-acids under 0.4 mg/mL G418 selection.
# (§3) Receptor mediated responses were determined by measuring changes in intracellular cAMP using LANCE cAMP detection kit (cat #AD0264, Perkin Elmer, Wellesley, Mass.) based on time-resolved fluorescence resonance energy transfer (TR-FRET). Changes in cAMP were determined in cells pre-incubated with IBMX (isobutyl methylxanthine) and prestimulated with NKH-477 (a water soluble forskolin derivative, cat #1603, Tocris, Ellisville, Mo.) to increase basal cAMP levels as detailed below.
# (§4) On the day of the experiment, cells were spun at low speed for 5 min at room temperature. The supernatant was removed and cells were resuspended in stimulation buffer (Hanks Buffered Salt Solution/5 mM HEPES, containing 0.5 mM IBMX (cat #17018, Sigma) and 0.02% BSA (Perkin-Elmer, cat #CR84-100)). Cell clumps were removed by filtering through cell strainer 40 μm (BD Falcon, Discovery Labware, Bedford, Mass.) and diluted to 2×10^5 cells/mL. Antibody supplied with the LANCE cAMP immunoassay kit was then added according to the manufacturer's instructions. An aliquot of cells was taken for un-induced controls. To the remaining cells was added NKH-477 (a water soluble forskolin derivative, Tocris cat #1603) to a final concentration of 2-8 μM. Cells were then incubated for 30 min at room temperature prior to adding to Proxiplates containing test compounds (final DMSO concentration was less than 0.5%) with a Multidrop bulk dispenser, followed by a sixty minute incubation at room temperature. The response was stopped by addition of the detection mix supplied with the LANCE kit. The reagents were allowed to equilibrate for three hours prior to reading on an Envision multi-mode detector (Perkin-Elmer). TR-FRET was measured using a 330-380 nm excitation filter, a 665 nm emission filter, dichroic mirror 380 nm and Z=1 mm. Cyclic AMP concentrations in each well were back-calculated from a cAMP standard curve run concurrently during each assay. Each plate contained 16 wells of forskolin stimulated cells and 16 wells of forskolin plus CP55,940-treated cells. Cells were treated with 1 μM CP55,940 (Tocris cat. #0949). Concentrations of cAMP were expressed as a percent of the difference of these two groups of wells. Concentration-response data including EC50 (the concentration of compound producing 50% of the maximal response) and intrinsic activity (the percent maximal activation compared to full activation by CP55,940) were determined using a four-parameter non-linear regression algorithm (Xlfit equation 251, IDBS).
# [2] = biological target: T1, rat CB2 receptor (rCB2) (Rattus norvegicus, UniProt Q9QZN9); experiment: cell-based; format: cell-based; settings: for +/− RCB2: agonist or inverse agonist at rCB2
# T1 sequence (Q9QZN9 1-360): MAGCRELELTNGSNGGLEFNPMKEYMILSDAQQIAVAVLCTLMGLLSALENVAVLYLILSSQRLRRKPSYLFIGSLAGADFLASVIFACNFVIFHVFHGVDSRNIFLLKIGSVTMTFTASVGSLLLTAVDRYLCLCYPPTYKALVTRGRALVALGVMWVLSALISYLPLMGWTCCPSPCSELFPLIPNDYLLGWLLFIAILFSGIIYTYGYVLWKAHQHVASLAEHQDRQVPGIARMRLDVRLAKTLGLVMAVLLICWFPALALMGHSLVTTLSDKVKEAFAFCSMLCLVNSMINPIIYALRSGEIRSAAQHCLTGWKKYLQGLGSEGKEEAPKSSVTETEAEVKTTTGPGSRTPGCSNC
# Experimental: as §1, §2, §3, §4
# [3] = groups >100 nM-10 μM and >10 μM, cAMP, CHO-K1 hCB1, read-out: EC50 HCB1
# [4] = groups >100 nM-10 μM and >10 μM, cAMP, CHO-K1 rCB2, read-out: EC50 RCB2
# human CB1 receptor (hCB1), sequence (P21554 whole entry): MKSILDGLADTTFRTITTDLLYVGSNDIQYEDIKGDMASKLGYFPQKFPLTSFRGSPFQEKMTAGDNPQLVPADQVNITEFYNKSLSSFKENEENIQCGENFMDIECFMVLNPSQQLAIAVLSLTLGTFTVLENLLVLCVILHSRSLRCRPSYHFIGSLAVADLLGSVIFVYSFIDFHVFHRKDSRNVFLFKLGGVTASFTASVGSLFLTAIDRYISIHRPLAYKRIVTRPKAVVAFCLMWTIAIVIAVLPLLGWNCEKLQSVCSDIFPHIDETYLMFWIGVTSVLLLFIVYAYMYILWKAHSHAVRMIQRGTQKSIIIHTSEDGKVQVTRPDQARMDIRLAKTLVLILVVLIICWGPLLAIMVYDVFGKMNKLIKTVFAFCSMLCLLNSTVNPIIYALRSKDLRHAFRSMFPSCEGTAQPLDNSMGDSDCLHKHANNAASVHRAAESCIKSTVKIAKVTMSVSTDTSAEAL
SMILES,"EC50 [1, 3] [nM]","EC50 [2, 4] [nM]",EC50 [1] [nM],+/− RCB2 [2],EC50 [2] [nM]
"CNC(=O)[C@@H](NC(=O)c1nc(-c2cnn(C)c2)n2c1CNCC2)C(C)(C)C [Compound 17, (S)-N-(3,3-dimethyl-1-(methylamino)-1-oxobutan-2-yl)-3-(1-methyl-1H-pyrazol-4-yl)-5,6,7,8-tetrahydroimidazo[1,5-a]pyrazine-1-carboxamide]",> 10000,> 10000,,,
"CNC(=O)[C@@H](NC(=O)c1nc(-c2cccc(Cl)c2)n2c1CNCC2)C(C)(C)C [Compound 18, (S)-3-(3-chlorophenyl)-N-(3,3-dimethyl-1-(methylamino)-1-oxobutan-2-yl)-5,6,7,8-tetrahydroimidazo[1,5-a]pyrazine-1-carboxamide]",,,> 10000,−,
"CNC(=O)[C@@H](NC(=O)c1nc(-c2cncnc2)n2c1CNCC2)C(C)(C)C [Compound 19, (S)-N-(3,3-dimethyl-1-(methylamino)-1-oxobutan-2-yl)-3-(pyrimidin-5-yl)-5,6,7,8-tetrahydroimidazo[1,5-a]pyrazine-1-carboxamide]",,,> 10000,,> 10000
"CNC(=O)[C@@H](NC(=O)c1nc(-c2cscc2C)n2c1CNCC2)C(C)(C)C [Compound 21, (S)-N-(3,3-dimethyl-1-(methylamino)-1-oxobutan-2-yl)-3-(4-methylthiophen-3-yl)-5,6,7,8-tetrahydroimidazo[1,5-a]pyrazine-1-carboxamide]",,,> 10000,+,
"CC(C)(C)[C@@H](CO)NC(=O)c1nc(-c2ccccc2)n2c1CNCC2 [Compound 22, (S)-N-(1-hydroxy-3,3-dimethylbutan-2-yl)-3-phenyl-5,6,7,8-tetrahydroimidazo[1,5-a]pyrazine-1-carboxamide]",,,> 10000,−,
"CC(C)(C)[C@H](CO)NC(=O)c1nc(-c2ccccc2)n2c1CNCC2 [Compound 23, (R)-N-(1-hydroxy-3,3-dimethylbutan-2-yl)-3-phenyl-5,6,7,8-tetrahydroimidazo[1,5-a]pyrazine-1-carboxamide]",,,> 10000,+,
"CC(C)(C)CNC(=O)c1nc(-c2ccccc2)n2c1CNCC2 [Compound 24, N-neopentyl-3-phenyl-5,6,7,8-tetrahydroimidazo[1,5-a]pyrazine-1-carboxamide]",> 10000,> 10000,,,
"O=C(c1nc(-c2ccccc2)n2c1CNCC2)N1CCOCC1 [Compound 25, morpholino(3-phenyl-5,6,7,8-tetrahydroimidazo[1,5-a]pyrazin-1-yl)methanone]",> 10000,> 10000,,,
"C[C@@H](NC(=O)c1nc(-c2ccccc2)n2c1CNCC2)C(C)(C)C [Compound 26, (R)-N-(3,3-dimethylbutan-2-yl)-3-phenyl-5,6,7,8-tetrahydroimidazo[1,5-a]pyrazine-1-carboxamide]",,,> 10000,,> 10000
"C[C@H](NC(=O)c1nc(-c2ccccc2)n2c1CNCC2)C(C)(C)C [Compound 27, (s)-N-(3,3-dimethylbutan-2-yl)-3-phenyl-5,6,7,8-tetrahydroimidazo[1,5-a]pyrazine-1-carboxamide]",,,> 10000,,> 10000
"CNC(=O)[C@H](C)NC(=O)c1nc(-c2ccccc2)n2c1CNCC2 [Compound 28, (S)-N-(1-(methylamino)-1-oxopropan-2-yl)-3-phenyl-5,6,7,8-tetrahydroimidazo[1,5-a]pyrazine-1-carboxamide]",> 10000,> 10000,,,
"CC(C)(CO)CNC(=O)c1nc(-c2ccccc2)n2c1CNCC2 [Compound 29, N-(3-hydroxy-2,2-dimethylpropyl)-3-phenyl-5,6,7,8-tetrahydroimidazo[1,5-a]pyrazine-1-carboxamide]",> 10000,,,−,
"CC(C)(C)OC(=O)N1CCn2c(-c3ccccc3)nc(C(=O)NC3C4(C)CCC(C4)C3(C)C)c2C1 (stereo not shown) [Compound 30, tert-butyl 3-phenyl-1-(1,3,3-trimethylbicyclo[2.2.1]heptan-2-ylcarbamoyl)-5,6-dihydroimidazo[1,5-a]pyrazine-7(8H)-carboxylate]",,,> 10000,−,
"C[C@H](NC(=O)c1nc(-c2ccccc2)n2c1CN(C(=O)OC(C)(C)C)CC2)c1ccccc1 [Compound 31, (S)-tert-butyl 3-phenyl-1-(1-phenylethylcarbamoyl)-5,6-dihydroimidazo[1,5-a]pyrazine-7(8H)-carboxylate]",> 10000,,,−,
"CC(C)(C)OC(=O)N1CCn2c(-c3ccccc3)nc(C(=O)Nc3ccccc3)c2C1 [Compound 32, tert-butyl 3-phenyl-1-(phenylcarbamoyl)-5,6-dihydroimidazo[1,5-a]pyrazine-7(8H)-carboxylate]",,,> 10000,−,
"CC(C)CCNC(=O)c1nc(-c2ccc(Cl)cc2)n2c1CN(C(=O)OC(C)(C)C)CC2 [Compound 33, tert-butyl 3-(4-chlorophenyl)-1-(isopentylcarbamoyl)-5,6-dihydroimidazo[1,5-a]pyrazine-7(8H)-carboxylate]",> 10000,,,−,
"CC(C)(C)OC(=O)N1CCn2c(-c3ccc(Cl)cc3)nc(C(=O)N[C@H](CO)C(C)(C)C)c2C1 [Compound 34, (S)-tert-butyl 3-(4-chlorophenyl)-1-(1-hydroxy-3,3-dimethylbutan-2-ylcarbamoyl)-5,6-dihydroimidazo[1,5-a]pyrazine-7(8H)-carboxylate]",,,> 10000,−,
"CC(C)(C)OC(=O)N1CCn2c(-c3ccccc3)nc(C(=O)NN3CCCCC3)c2C1 [Compound 35, tert-butyl 3-phenyl-1-(piperidin-1-ylcarbamoyl)-5,6-dihydroimidazo[1,5-a]pyrazine-7(8H)-carboxylate]",> 10000,,,−,
"CC(C)(C)OC(=O)N1CCn2c(-c3ccccc3)nc(C(=O)NC3CCCCC3)c2C1 [Compound 36, tert-butyl 1-(cyclohexylcarbamoyl)-3-phenyl-5,6-dihydroimidazo[1,5-a]pyrazine-7(8H)-carboxylate]",,,> 10000,−,
"C[C@@H](NC(=O)c1nc(-c2ccccc2)n2c1CN(C(=O)OC(C)(C)C)CC2)C1CCCCC1 [Compound 37, (R)-tert-butyl 1-(1-cyclohexylethylcarbamoyl)-3-phenyl-5,6-dihydroimidazo[1,5-a]pyrazine-7(8H)-carboxylate]",,,> 10000,−,
"CC(C)(C)OC(=O)N1CCn2c(-c3ccccc3)nc(C(=O)NCC3CCOCC3)c2C1 [Compound 38, tert-butyl 3-phenyl-1-((tetrahydro-2H-pyran-4-yl)methylcarbamoyl)-5,6-dihydroimidazo[1,5-a]pyrazine-7(8H)-carboxylate]",> 10000,,,−,
"CC12CCC(C1)C(C)(C)C2NC(=O)c1nc(-c2ccccc2)n2c1CNCC2 (stereo not shown) [Compound 39, 3-Phenyl-N-(1,3,3-trimethylbicyclo[2.2.1]heptan-2-yl)-5,6,7,8-tetrahydro-imidazo[1,5-a]pyrazine-1-carboxamide HCl]",,,> 10000,+,
"C[C@H](NC(=O)c1nc(-c2ccccc2)n2c1CNCC2)c1ccccc1 [Compound 40, (S)-3-phenyl-N-(1-phenylethyl)-5,6,7,8-tetrahydroimidazo[1,5-a]pyrazine-1-carboxamide]",,,> 10000,+,
